Consider one substance from patent publication US20030125285A1, “Method of examining efficacy of therapy with nucleic acid” (priority 2001, published 2003).

The subject of one test is HeLa cancer cells. The note with it: Cancer Research, 59, pp. 4325-4333 (1999); cited from earlier work.
Another test relates to A431 cancer cells. The note with it: Cancer Research, 59, pp. 4325-4333 (1999); cited from earlier work.
A further test deals with SW620 cancer cells. The note with it: Cancer Research, 59, pp. 4325-4333 (1999); cited from earlier work.
In another test the test system is HeLaS3 cancer cells. The note with it: Cancer Research, 59, pp. 4325-4333 (1999); cited from earlier work.
In test [1] the target is T1, protein of SEQ ID NO: 3 (human TRAL) (Homo sapiens, UniProt P14625).
T1 construct: made in house
T1 sequence (P14625 22-803): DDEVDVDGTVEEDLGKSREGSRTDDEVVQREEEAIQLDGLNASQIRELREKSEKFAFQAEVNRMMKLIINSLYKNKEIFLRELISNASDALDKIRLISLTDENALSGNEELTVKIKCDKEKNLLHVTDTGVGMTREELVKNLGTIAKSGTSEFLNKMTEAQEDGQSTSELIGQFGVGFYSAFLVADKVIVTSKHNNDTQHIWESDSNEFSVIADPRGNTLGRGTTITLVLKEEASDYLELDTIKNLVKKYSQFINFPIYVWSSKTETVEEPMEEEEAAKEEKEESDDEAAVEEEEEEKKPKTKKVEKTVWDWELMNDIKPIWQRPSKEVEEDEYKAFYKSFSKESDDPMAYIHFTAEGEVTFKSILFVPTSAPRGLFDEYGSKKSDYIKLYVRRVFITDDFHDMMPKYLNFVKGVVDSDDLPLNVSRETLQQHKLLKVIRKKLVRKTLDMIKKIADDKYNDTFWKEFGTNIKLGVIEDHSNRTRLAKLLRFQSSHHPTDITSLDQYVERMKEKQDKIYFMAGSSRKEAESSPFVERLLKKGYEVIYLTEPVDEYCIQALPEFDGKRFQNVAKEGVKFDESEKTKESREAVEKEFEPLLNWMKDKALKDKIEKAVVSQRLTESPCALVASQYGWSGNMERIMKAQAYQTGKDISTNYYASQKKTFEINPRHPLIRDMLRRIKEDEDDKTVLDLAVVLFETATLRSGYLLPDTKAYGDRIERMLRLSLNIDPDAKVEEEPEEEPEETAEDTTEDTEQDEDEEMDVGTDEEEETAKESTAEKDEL
Briefly: Detection of binding of radio-labeled poly(I)•poly(C) to phage cDNA library proteins on nitrocellulose membrane. The note with it: [32P]-poly(I)•poly(C) 1 ng/ml-1 μg/ml, chain length 100-500 bp, 42° C., 5-6 hours. The method, then:
(§1) Detection of Binding Ability to Proteins of SEQ ID NO: 1-3
(§2) (1) Each protein was synthesized by plating phages containing cDNA on a petri dish using human HeLa 5′-STRETCH PLUS cDNA library.
(§3) (2) The synthesized protein was transferred to nitrocellulose membrane.
(§4) (3) To the nitrocellulose membrane was added the following test solution containing poly(I)•poly(C) (chain length 100-500 bp) radio-labeled with [γ-^32P]ATP, and subjected to hybridization at 42° C., for 5-6 hours.
(§5) 1 ng/ml-1 μg/ml [^32P]-poly(I)•poly(C)
(§6) The nucleotide sequence of cDNA corresponding to the screened protein was determined with a sequencer to identify the screened protein.

The target of test [2] is T2, protein of SEQ ID NO: 2 (human TAR RNA binding protein 2, TRBP2) (Homo sapiens, UniProt Q15633).
T2 construct: made in house
T2 sequence (Q15633 1-366): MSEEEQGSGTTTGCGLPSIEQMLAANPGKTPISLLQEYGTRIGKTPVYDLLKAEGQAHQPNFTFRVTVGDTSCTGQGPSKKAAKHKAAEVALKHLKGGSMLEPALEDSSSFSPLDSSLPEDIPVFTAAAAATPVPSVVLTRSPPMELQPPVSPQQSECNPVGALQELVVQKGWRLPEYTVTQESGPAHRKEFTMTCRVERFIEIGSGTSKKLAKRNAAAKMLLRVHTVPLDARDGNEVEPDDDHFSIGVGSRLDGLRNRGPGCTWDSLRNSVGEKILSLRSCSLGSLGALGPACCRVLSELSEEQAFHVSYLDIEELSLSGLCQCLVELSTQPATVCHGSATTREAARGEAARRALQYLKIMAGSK
The test is described as above. The note with it: [32P]-poly(I)•poly(C) 1 ng/ml-1 μg/ml, chain length 100-500 bp, 42° C., 5-6 hours. The method, then: as §1, §2, §3, §4, §5, §6

The target in test [3] is T3, protein of SEQ ID NO: 1 (AK002169) (Homo sapiens, UniProt Q96SI9).
T3 construct: made in house
T3 sequence (Q96SI9 183-672): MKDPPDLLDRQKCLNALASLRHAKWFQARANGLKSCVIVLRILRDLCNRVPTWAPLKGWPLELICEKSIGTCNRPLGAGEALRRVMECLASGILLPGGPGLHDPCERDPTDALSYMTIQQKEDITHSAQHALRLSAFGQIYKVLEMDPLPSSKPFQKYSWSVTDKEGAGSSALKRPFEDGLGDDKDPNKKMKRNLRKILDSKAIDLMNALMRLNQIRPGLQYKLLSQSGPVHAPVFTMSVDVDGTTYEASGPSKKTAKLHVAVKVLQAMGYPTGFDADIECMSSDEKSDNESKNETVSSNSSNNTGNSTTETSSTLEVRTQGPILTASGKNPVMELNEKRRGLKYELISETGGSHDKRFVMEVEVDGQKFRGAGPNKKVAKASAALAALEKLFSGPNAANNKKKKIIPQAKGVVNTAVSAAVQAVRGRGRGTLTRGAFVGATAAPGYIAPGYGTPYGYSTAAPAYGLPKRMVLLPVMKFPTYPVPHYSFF
The test is described as above. The note with it: [32P]-poly(I)•poly(C) 1 ng/ml-1 μg/ml, chain length 100-500 bp, 42° C., 5-6 hours. The method, then: as §1, §2, §3, §4, §5, §6

As for “polyinosinic acid-polycytidylic acid [poly(I)•poly(C)]”, the “efficacy against cancer cells” value with HeLa cancer cells is reported as “inefficacious”; in the test on A431 cancer cells, “efficacious”; with SW620 cancer cells, “inefficacious”; in the test with HeLaS3 cancer cells, “efficacious”. The “binding to protein of SEQ ID NO: 3” value in test [1] is listed as “bound”. In addition, in test [2], the “binding to protein of SEQ ID NO: 2” value is reported as “bound”. The “binding to protein of SEQ ID NO: 1” value in test [3] is recorded as “bound”.
